Some results are limits rather than exact numbers.

Chain of human PDE4D catalytic domain (Q08499 380-740): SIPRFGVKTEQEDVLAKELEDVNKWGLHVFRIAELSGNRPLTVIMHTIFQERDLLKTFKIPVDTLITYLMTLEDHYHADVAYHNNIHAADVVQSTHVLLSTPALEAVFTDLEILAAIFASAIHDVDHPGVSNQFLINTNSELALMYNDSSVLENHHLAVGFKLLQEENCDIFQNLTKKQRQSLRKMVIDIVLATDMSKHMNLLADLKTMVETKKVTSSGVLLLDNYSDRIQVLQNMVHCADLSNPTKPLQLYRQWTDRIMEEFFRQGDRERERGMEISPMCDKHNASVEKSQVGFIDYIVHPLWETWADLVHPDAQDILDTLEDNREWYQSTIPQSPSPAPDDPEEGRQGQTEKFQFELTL

The first assay addresses human PDE4D catalytic domain (Homo sapiens (Human), UniProt Q08499). The assay is described as follows: PDE4 Assay (TR-FRET, FAM-cAMP cleavage). Format: biochemical. The note with it: Table 16, Examples 277-296; read-out: PDE4 IC50 range. Summed up:
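PDE4D catalytic domain (S380-L740) incubated briefly with unlabelled cAMP plus FAM-cAMP and titrated compound. Reaction stopped with binding buffer holding metal-ion nanoparticles that bind AMP phospho groups and Tb donor, and AMP formation read by TR-FRET. IC50 versus controls, reported as ranges (nM).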
For orientation: In TR-FRET formats the signal depends on donor and acceptor labels being close together.
In the case of `CCn1nc(C[C@@H](C)COC(=O)c2csc(C)n2)c2c1C(=O)NCC1(CCOCC1)C2` [Example 290, [(2R)-3-(1-ethyl-8-oxo-spiro[6,7-dihydro-4H-pyrazolo[3,4-c]azepine-5,4′-tetrahydropyran]-3-yl)-2-methyl-propyl] 2-methylthiazole-4-carboxylate], the concentration for half-maximal inhibition (IC50) (commonly the concentration that inhibits the measured activity by half) is under 100 nM.

Still in this assay, the particulars now being: Table 17, Examples 297-316; read-out: PDE4 IC50 range.
For the compound `CCn1nc(CC(C)(C)COC(=O)c2csc(C)n2)c2c1C(=O)NCC1(CCOCC1)C2` [Example 310, [3-(1-ethyl-8-oxo-spiro[6,7-dihydro-4H-pyrazolo[3,4-c]azepine-5,4′-tetrahydro-pyran]-3-yl)-2,2-dimethyl-propyl] 2-methylthiazole-4-carboxylate], the IC50 was under 100 nM.

The assay is the same for the next values; noted with them: human PDE4D catalytic domain (UniProt Q08499 [S380-L740]); 50% inhibition of substrate cleavage; read-out: PDE4 IC50 range.
For `CCn1nc(CCCOC(=O)c2csc(C)n2)c2c1C(=O)NCC1(CCOCC1)C2` [Example 254, 3-(1-ethyl-8-oxo-spiro[6,7-dihydro-4H-pyrazolo[3,4-c]azepine-5,4′-tetrahydropyran]-3-yl)propyl 2-methylthiazole-4-carboxylate], the half-inhibitory concentration (IC50) was under 100 nM.

Take `CCn1nc(CCCOC(=O)c2cccc(C(=O)N3CCN(C)CC3)c2)c2c1C(=O)NCC1(CCOCC1)C2` [Example 119, 3-(1-ethyl-8-oxo-spiro[6,7-dihydro-4H-pyrazolo[3,4-c]azepine-5,4′-tetrahydropyran]-3-yl)propyl 3-(4-methylpiperazine-1-carbonyl)benzoate]: the IC50 is under 100 nM.

As to `CCn1nc(CCCOC(=O)c2ccc(C(F)(F)F)c(OC)c2)c2c1C(=O)NCC1(CCOCC1)C2` [Example 83, 3-(1-ethyl-8-oxo-spiro[6,7-dihydro-4H-pyrazolo[3,4-c]azepine-5,4′-tetrahydro-pyran]-3-yl)propyl 3-methoxy-4-(trifluoromethyl)benzoate], the half-inhibitory concentration (IC50) was under 100 nM.

`CCn1nc(CCCOC(=O)c2ccc(C(N)=O)cc2)c2c1C(=O)NCC1(CCOCC1)C2` [Example 104, 3-(1-ethyl-8-oxo-spiro[6,7-dihydro-4H-pyrazolo[3,4-c]azepine-5,4′-tetrahydropyran]-3-yl)propyl 4-carbamoylbenzoate]: the IC50 was under 100 nM.

For the compound `CCn1nc(CC(C)(C)COC(=O)c2ccc(C)cc2)c2c1C(=O)NCC1(CCOCC1)C2` [Example 188, [3-(1-ethyl-8-oxo-spiro[6,7-dihydro-4H-pyrazolo[3,4-c]azepine-5,4′-tetrahydropyran]-3-yl)-2,2-dimethyl-propyl] 4-methylbenzoate], the IC50 was under 100 nM.

For `CCn1nc(C[C@@H](C)COC(=O)c2cccc(C(=O)N3CCCC3)c2)c2c1C(=O)NCC1(CCOCC1)C2` [Example 181, [(2R)-3-(1-ethyl-8-oxo-spiro[6,7-dihydro-4H-pyrazolo[3,4-c]azepine-5,4′-tetrahydropyran]-3-yl)-2-methyl-propyl] 3-(pyrrolidine-1-carbonyl)benzoate], the IC50 was under 100 nM.

Consider `CCn1nc(CCCOC(=O)c2cccc(S(=O)(=O)C(C)C)c2)c2c1C(=O)NCC1(CCOCC1)C2` [Example 92, 3-(1-ethyl-8-oxo-spiro[6,7-dihydro-4H-pyrazolo[3,4-c]azepine-5,4′-tetrahydropyran]-3-yl)propyl 3-isopropylsulfonylbenzoate], for which the IC50 was under 100 nM.

As to `CCn1nc(CC(C)(C)COC(=O)[C@H]2CC[C@H](O)CC2)c2c1C(=O)NCC1(CCOCC1)C2` [Example 194, [3-(1-ethyl-8-oxo-spiro[6,7-dihydro-4H-pyrazolo[3,4-c]azepine-5,4′-tetrahydropyran]-3-yl)-2,2-dimethyl-propyl] 4-hydroxycyclohexane-carboxylate], the IC50 was under 100 nM.

With `CCn1nc(CCCOC(=O)c2ccccc2)c2c1C(=O)NCC1(CCOCC1)C2` [Example 7, 3-(1-ethyl-8-oxo-spiro[6,7-dihydro-4H-pyrazolo[3,4-c]azepine-5,4′-tetrahydropyran]-3-yl)propyl benzoate], the IC50 was under 100 nM.

`CCn1nc(CCCOC(=O)c2cccc(C(F)(F)F)c2C)c2c1C(=O)NCC1(CCOCC1)C2` [Example 68, 3-(1-ethyl-8-oxo-spiro[6,7-dihydro-4H-pyrazolo[3,4-c]azepine-5,4′-tetrahydro-pyran]-3-yl)propyl 2-methyl-3-(trifluoromethyl)benzoate]: the IC50 is under 100 nM.

As to `CCn1nc(CC(C)(C)COC(=O)c2ccc(C(=O)N3CCN(C)CC3)cc2)c2c1C(=O)NCC1(CCOCC1)C2` [Example 224, [3-(1-ethyl-8-oxo-spiro[6,7-dihydro-4H-pyrazolo[3,4-c]azepine-5,4′-tetrahydro-pyran]-3-yl)-2,2-dimethyl-propyl] 4-(4-methyl-piperazine-1-carbonyl)-benzoate], the IC50 was under 100 nM.

On to `CCn1nc(CCCOC(=O)c2cc(C)ns2)c2c1C(=O)NCC1(CCOCC1)C2` [Example 253, 3-(1-ethyl-8-oxo-spiro[6,7-dihydro-4H-pyrazolo[3,4-c]azepine-5,4′-tetrahydropyran]-3-yl)propyl 3-methylisothiazole-5-carboxylate], for which the IC50 was under 100 nM.

For `CCn1nc(CC(C)(C)COC(=O)c2cccc(C(N)=O)c2)c2c1C(=O)NCC1(CCOCC1)C2` [Example 227, [3-(1-ethyl-8-oxo-spiro[6,7-dihydro-4H-pyrazolo[3,4-c]azepine-5,4′-tetrahydropyran]-3-yl)-2,2-dimethyl-propyl] 3-carbamoylbenzoate], the IC50 was under 100 nM.

Regarding `CCn1nc(CCCOC(=O)c2cccc(Cl)c2F)c2c1C(=O)NCC1(CCOCC1)C2` [Example 50, 3-(1-ethyl-8-oxo-spiro[6,7-dihydro-4H-pyrazolo[3,4-c]azepine-5,4′-tetrahydropyran]-3-yl)propyl 3-chloro-2-fluoro-benzoate], the IC50 was under 100 nM.

With `CCn1nc(CCCOC(=O)c2ccc(C(F)(F)F)cc2C(F)(F)F)c2c1C(=O)NCC1(CCOCC1)C2` [Example 97, 3-(1-ethyl-8-oxo-spiro[6,7-dihydro-4H-pyrazolo[3,4-c]azepine-5,4′-tetrahydro-pyran]-3-yl)propyl 2,4-bis(trifluoromethyl)benzoate], the concentration for half-maximal inhibition (IC50) is under 100 nM.

On to `CCn1nc(CCCOC(=O)c2cccc(OC)c2Cl)c2c1C(=O)NCC1(CCOCC1)C2` [Example 57, 3-(1-ethyl-8-oxo-spiro[6,7-dihydro-4H-pyrazolo[3,4-c]azepine-5,4′-tetrahydropyran]-3-yl)propyl 2-chloro-3-methoxy-benzoate], for which the IC50 was under 100 nM.

Turning to `CCn1nc(C[C@@H](C)COC(=O)c2ccc(C(=O)N3CCCCC3)cc2)c2c1C(=O)NCC1(CCOCC1)C2` [Example 173, [(2R)-3-(1-ethyl-8-oxo-spiro[6,7-dihydro-4H-pyrazolo[3,4-c]azepine-5,4′-tetrahydropyran]-3-yl)-2-methyl-propyl] 4-(piperidine-1-carbonyl)benzoate], the IC50 is under 100 nM.

Consider `CCn1nc(C[C@@H](C)COC(=O)c2ccc(S(=O)(=O)C3CCCC3)cc2)c2c1C(=O)NCC1(CCOCC1)C2` [Example 162, [(2R)-3-(1-ethyl-8-oxo-spiro[6,7-dihydro-4H-pyrazolo[3,4-c]azepine-5,4′-tetrahydropyran]-3-yl)-2-methyl-propyl] 4-cyclopentylsulfonylbenzoate], for which the 50% inhibitory concentration (IC50) is under 100 nM.

As for `CCn1nc(CC(C)(C)COC(=O)c2cccc(S(=O)(=O)N3CCCC3)c2)c2c1C(=O)NCC1(CCOCC1)C2` [Example 210, [3-(1-ethyl-8-oxo-spiro[6,7-dihydro-4H-pyrazolo[3,4-c]azepine-5,4′-tetrahydropyran]-3-yl)-2,2-dimethyl-propyl] 3-pyrrolidin-1-ylsulfonylbenzoate], the IC50 was under 100 nM.

With `CCn1nc(CCOC(=O)C2CCOCC2)c2c1C(=O)NCC1(CCOCC1)C2` [Example 276, 2-(1-ethyl-8-oxo-spiro[6,7-dihydro-4H-pyrazolo[3,4-c]azepine-5,4′-tetrahydropyran]-3-yl)ethyl tetrahydropyran-4-carboxylate], the IC50 lay in the range of 100 to 500 nM.

As for `CCn1nc(CC(C)(C)COC(=O)CCOC)c2c1C(=O)NCC1(CCOCC1)C2` [Example 186, [3-(1-ethyl-8-oxo-spiro[6,7-dihydro-4H-pyrazolo[3,4-c]azepine-5,4′-tetrahydropyran]-3-yl)-2,2-dimethyl-propyl] 3-methoxypropanoate], the IC50 was under 100 nM.

Regarding `CCn1nc(CCCOC(=O)c2cccc(S(=O)(=O)N3CCN(C(C)=O)CC3)c2)c2c1C(=O)NCC1(CCOCC1)C2` [Example 101, 3-(1-ethyl-8-oxo-spiro[6,7-dihydro-4H-pyrazolo[3,4-c]azepine-5,4′-tetrahydropyran]-3-yl)propyl 3-(4-acetylpiperazin-1-yl)sulfonylbenzoate], the IC50 is under 100 nM.

Regarding `CCn1nc(CCCCOC(=O)c2cnsc2)c2c1C(=O)NCC1(CCOCC1)C2` [Example 268, 4-(1-ethyl-8-oxo-spiro[6,7-dihydro-4H-pyrazolo[3,4-c]azepine-5,4′-tetrahydropyran]-3-yl)butyl isothiazole-4-carboxylate], the IC50 is under 100 nM.

Take `CCn1nc(CCCCOC(=O)c2ccc(C(=O)N3CCOCC3)cc2)c2c1C(=O)NCC1(CCOCC1)C2` [Example 133, 4-(1-ethyl-8-oxo-spiro[6,7-dihydro-4H-pyrazolo[3,4-c]azepine-5,4′-tetrahydropyran]-3-yl)butyl 4-(morpholine-4-carbonyl)benzoate]: the IC50 is under 100 nM.

Turning to `CCn1nc(CCCOC(=O)c2ccc(F)cc2C(F)(F)F)c2c1C(=O)NCC1(CCOCC1)C2` [Example 71, 3-(1-ethyl-8-oxo-spiro[6,7-dihydro-4H-pyrazolo[3,4-c]azepine-5,4′-tetrahydro-pyran]-3-yl)propyl 4-fluoro-2-(trifluoromethyl)benzoate], the IC50 was under 100 nM.

In the case of `CCn1nc(CC(C)(C)COC(=O)c2cccc(S(=O)(=O)CC)c2)c2c1C(=O)NCC1(CCOCC1)C2` [Example 204, [3-(1-ethyl-8-oxo-spiro[6,7-dihydro-4H-pyrazolo[3,4-c]azepine-5,4′-tetrahydropyran]-3-yl)-2,2-dimethyl-propyl] 3-ethylsulfonylbenzoate], the IC50 is under 100 nM.

The values are drawn from patent US10793580B2, “Substituted pyrazoloazepin-8-ones and their use as phosphodiesterase inhibitors” (LEO Pharma A/S, priority 2016, dated 2020).
